# According to PubChem BioAssay (NCI):
# “And” between values parts separate entries of the source, which are not always exact repeats. Identical values can stand only once.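 Protocol summary: plate cells (96-well), add compound at 5 concentrations, incubate 48 h, interpolate endpoints linearly. GI50 is the concentration that inhibits growth by half. Definition used: TGI = concentration required for complete inhibition of growth.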
# Columns and labels:
# Assay in all cases: NCI anticancer screen, dose series, 48 h
# [1] = test system: HS 578T breast
# [2] = test system: SK-MEL-5 melanoma
# [3] = test system: MOLT-4 leukemia
# [4] = test system: OVCAR-8 ovarian
# [5] = test system: DU-145 prostate
# [6] = test system: KM12 colon
# [7] = test system: NCI-H23 lung
# [8] = test system: HOP-62 NSCLC
# [9] = test system: MALME-3M melanoma
# [10] = test system: RPMI-8226 leukemia
SMILES,GI50 [1],TGI [1],GI50 [2],TGI [2],GI50 [3],TGI [3],GI50 [4],TGI [4],GI50 [5],TGI [5],GI50 [6],TGI [6],GI50 [7],TGI [7],GI50 [8],TGI [8],GI50 [9],TGI [9],GI50 [10],TGI [10]
O=C1C=C(Nc2ccccc2)c2ncccc2C1=O,2.33 µM,6.58 µM,0.177 µM,0.318 µM,1.02 µM,3.78 µM,0.373 µM,1.4 µM,0.341 µM,1.12 µM,0.669 µM,2.11 µM,0.307 µM,1.31 µM,0.376 µM,1.49 µM,1.06 µM,2.37 µM,0.305 µM,1.3 µM
CCN(Cc1ccc(F)cc1)c1ccc(CO)c(Cl)c1,17.8 µM,> 66.2 µM,1.86 µM,15.2 µM,15.1 µM,42.6 µM,9.24 µM,43.5 µM,15.2 µM,> 49.2 µM,16.3 µM,40.3 µM,5.79 µM,49.1 µM,0.576 µM,25.1 µM,15 µM,35.9 µM,3.68 µM,36.3 µM
O=C(OC(C(=O)O)C(OC(=O)c1ccccc1)C(=O)O)c1ccccc1 (centres undefined) (tested in a mixture with another compound),,64.8 µM,,43.2 µM,,> 100 µM,,> 100 µM,,> 100 µM,,> 100 µM,,> 100 µM and 84.2 µM,,> 100 µM,,> 100 µM,,> 100 µM
CC(=O)[O-].CC(=O)[O-].[Mn+2].c1ccc(/C(=N\Nc2ccccn2)c2ccccn2)cc1,,70.2 µM,0.0567 µM,5.38 µM,0.00103 µM,1.29 µM,,12.3 µM,,11.6 µM,,13.7 µM,0.00784 µM,16.7 µM,,5.69 µM,0.0362 µM,16.8 µM,,7.04 µM
COc1ccc(OC)c(/C=C/c2nnc(Nc3ccc(Cl)cc3)o2)c1,2.71 µM,8.01 µM,7.17 µM,> 100 µM,> 100 µM,> 100 µM,4.91 µM,21 µM,11.4 µM,36.9 µM,17.4 µM,> 100 µM,21.7 µM,> 100 µM,2.71 µM,7.68 µM,9.87 µM,52.4 µM,> 100 µM,> 100 µM
CCCCCCN(CCCCCC)C(=N)c1ccnc2ccccc12,12 µM,47.1 µM,1.96 µM,3.45 µM,3.11 µM,17.2 µM,10.4 µM,24.1 µM,13.5 µM,26.6 µM,3.95 µM,15.2 µM,6.9 µM,23.4 µM,10.8 µM,24.2 µM,2.25 µM,5.64 µM,2.93 µM,11.6 µM
Nc1ncc(-c2cnn(C3CCNCC3)c2)cc1-c1nc2ccccc2o1,1.75 µM,4.28 µM,2.03 µM,5.47 µM,0.361 µM,1.32 µM,2.59 µM,8.9 µM,1.75 µM,8.86 µM,0.0812 µM,1.45 µM,1.35 µM,12.7 µM,0.915 µM,5.19 µM,1.72 µM,3.37 µM,0.857 µM,2.7 µM
